Data published in PubChem BioAssay AID1745844 (Carcinogenic Potency Database (CPDB), 2022).
Calls of active or inactive are those of the source. The rule behind the calls is not given here.

System: rodent lifetime carcinogenesis bioassay, tumor incidence TD50
Test: chronic cancer bioassays in animals – CPDB, compiled studies (AID 1745844)

CNN
2.93 mg/kg/day: TD50 (mouse, strain Swiss, males, in drinking water, site: lung, lesion: adenoma, dosed 112 weeks, study length 112 weeks)
5.63 mg/kg/day: TD50 (mouse, strain Swiss, females, in drinking water, site: lung, lesion: adenocarcinoma, dosed 113 weeks, study length 113 weeks)
7.25 mg/kg/day: TD50 (mouse, strain Swiss, males, in drinking water, site: liver, lesion: hepatoma, dosed 69 weeks, study length 69 weeks)
10.1 mg/kg/day: TD50 (mouse, strain Swiss, males, in drinking water, site: lung, lesion: adenoma, dosed 69 weeks, study length 69 weeks)
47.2 mg/kg/day: TD50 (mouse, strain Swiss, females, in drinking water, site: liver, lesion: several types, types named in the paper, dosed 113 weeks, study length 113 weeks)
4.02 mg/kg/day: TD50 (mouse, strain Swiss, females, in drinking water, site: lung, lesion: adenoma, dosed 113 weeks, study length 113 weeks)
30.8 mg/kg/day: TD50 (hamster, strain Syrian Golden, females, in drinking water, site: liver, lesion: several types, types named in the paper, dosed 86 weeks, study length 86 weeks)
active: TD50 (hamster, strain Syrian Golden, females, in drinking water, site: cecum, lesion: several types, types named in the paper, dosed 86 weeks, study length 86 weeks) 25.8 mg/kg/day | TD50 (hamster, strain Syrian Golden, females, in drinking water, site: liver, lesion: histiocytoma, malignant, dosed 86 weeks, study length 86 weeks) 15.4 mg/kg/day | TD50 (hamster, strain Syrian Golden, males, in drinking water, site: cecum, lesion: several types, types named in the paper, dosed 100 weeks, study length 100 weeks) 42.1 mg/kg/day | TD50 (hamster, strain Syrian Golden, males, in drinking water, site: liver, lesion: histiocytoma, malignant, dosed 100 weeks, study length 100 weeks) 9.2 mg/kg/day | TD50 (mouse, strain Swiss, females, in drinking water, site: bile duct, lesion: several types, types named in the paper, dosed 62 weeks, study length 62 weeks) 24.6 mg/kg/day | TD50 (mouse, strain Swiss, females, in drinking water, site: liver, lesion: hepatoma, dosed 62 weeks, study length 62 weeks) 51.1 mg/kg/day | TD50 (mouse, strain Swiss, females, in drinking water, site: lung, lesion: several types, types named in the paper, dosed 62 weeks, study length 62 weeks) 21.4 mg/kg/day | TD50 (mouse, strain Swiss, females, in drinking water, site: lung, lesion: several types, types named in the paper, dosed 113 weeks, study length 113 weeks) 2.98 mg/kg/day | TD50 (mouse, strain Swiss, males, in drinking water, site: bile duct, lesion: several types, types named in the paper, dosed 69 weeks, study length 69 weeks) 22.5 mg/kg/day | TD50 (mouse, strain Swiss, males, in drinking water, site: liver, lesion: several types, types named in the paper, dosed 69 weeks, study length 69 weeks) 4.58 mg/kg/day | TD50 (mouse, strain Swiss, males, in drinking water, site: lung, lesion: several types, types named in the paper, dosed 112 weeks, study length 112 weeks) 2.51 mg/kg/day
inactive: TD50 (hamster, strain Syrian Golden, females, in drinking water, site: lung, lesion: angiosarcoma, dosed 86 weeks, study length 86 weeks) 297 mg/kg/day | carcinogen call (mouse, strain Swiss, females, by gavage, site: lung, lesion: one or several types, types not named, dosed 40 weeks, study length 55 weeks) negative
50.7 mg/kg/day: TD50 (hamster, strain Syrian Golden, males, in drinking water, site: cecum, lesion: polypoid adenoma, dosed 100 weeks, study length 100 weeks)
12 mg/kg/day: TD50 (mouse, strain Swiss, males, in drinking water, site: lung, lesion: adenocarcinoma, dosed 112 weeks, study length 112 weeks)
29.2 mg/kg/day: TD50 (mouse, strain Swiss, females, in drinking water, site: bile duct, lesion: cholangioma, dosed 62 weeks, study length 62 weeks)
29.8 mg/kg/day: TD50 (hamster, strain Syrian Golden, females, in drinking water, site: cecum, lesion: polypoid adenoma, dosed 86 weeks, study length 86 weeks)
19.6 mg/kg/day: TD50 (mouse, strain Swiss, females, in drinking water, site: lung, lesion: adenoma, dosed 62 weeks, study length 62 weeks)
7.85 mg/kg/day: TD50 (mouse, strain Swiss, males, in drinking water, site: all sites, lesion: malignant lymphoma, dosed 112 weeks, study length 112 weeks)

CN(C)c1ccc(C(=C2C=CC(=[N+](C)C)C=C2)c2ccc(N(C)C)cc2)cc1
active: TD50 (mouse, strain B6C3F1, females, in feed, site: Harderian gland, lesion: adenoma, dosed 107 weeks, study length 107 weeks) 305 mg/kg/day | TD50 (mouse, strain B6C3F1, females, in feed, site: liver, lesion: hepatocellular adenoma, dosed 78 weeks, study length 78 weeks) 115 mg/kg/day | TD50 (mouse, strain B6C3F1, females, in feed, site: liver, lesion: hepatocellular adenoma, dosed 107 weeks, study length 107 weeks) 75.5 mg/kg/day | TD50 (mouse, strain B6C3F1, females, in feed, site: liver, lesion: hepatocellular carcinoma, dosed 78 weeks, study length 78 weeks) 343 mg/kg/day | TD50 (mouse, strain B6C3F1, females, in feed, site: liver, lesion: hepatocellular carcinoma, dosed 107 weeks, study length 107 weeks) 57.9 mg/kg/day | TD50 (mouse, strain B6C3F1, females, in feed, site: ovary, lesion: reticulum-cell sarcoma, type A, dosed 107 weeks, study length 107 weeks) 912 mg/kg/day | TD50 (mouse, strain B6C3F1, females, in feed, site: urinary bladder, lesion: reticulum-cell sarcoma, type A, dosed 107 weeks, study length 107 weeks) 834 mg/kg/day | TD50 (mouse, strain B6C3F1, females, in feed, site: uterus, lesion: reticulum-cell sarcoma, type A, dosed 107 weeks, study length 107 weeks) 413 mg/kg/day | TD50 (mouse, strain B6C3F1, females, in feed, site: vagina, lesion: reticulum-cell sarcoma, type A, dosed 107 weeks, study length 107 weeks) 668 mg/kg/day | TD50 (mouse, strain B6C3F1, males, in feed, site: Harderian gland, lesion: adenoma, dosed 107 weeks, study length 107 weeks) 615 mg/kg/day | TD50 (mouse, strain B6C3F1, males, in feed, site: liver, lesion: hepatocellular adenoma, dosed 107 weeks, study length 107 weeks) 139 mg/kg/day | TD50 (mouse, strain B6C3F1, males, in feed, site: liver, lesion: hepatocellular carcinoma, dosed 107 weeks, study length 107 weeks) 222 mg/kg/day
inactive: carcinogen call (mouse, strain B6C3F1, females, in feed, site: liver, lesion: one or several types, types not named, dosed 52 weeks, study length 52 weeks) negative | carcinogen call (mouse, strain B6C3F1, males, in feed, site: liver, lesion: hepatocellular adenoma, dosed 52 weeks, study length 52 weeks) negative | TD50 (mouse, strain B6C3F1, males, in feed, site: liver, lesion: hepatocellular adenoma, dosed 78 weeks, study length 78 weeks) 636 mg/kg/day | carcinogen call (mouse, strain B6C3F1, males, in feed, site: liver, lesion: hepatocellular carcinoma, dosed 78 weeks, study length 78 weeks) negative

CCOC(=O)C1OC1(C)c1ccccc1 (stereo not given)
inactive: TD50 (rat, strain Wistar, females, in feed, site: any site (literature study), lesion: benign tumor, dosed 104 weeks, study length 104 weeks) 253 mg/kg/day | TD50 (rat, strain Wistar, females, in feed, site: any site (literature study), lesion: malignant tumor, dosed 104 weeks, study length 104 weeks) 2230 mg/kg/day | TD50 (rat, strain Wistar, females, in feed, site: liver, lesion: hemangioendothelioma, dosed 104 weeks, study length 104 weeks) 9360 mg/kg/day | TD50 (rat, strain Wistar, females, in feed, site: pituitary gland, lesion: adenoma, dosed 104 weeks, study length 104 weeks) 331 mg/kg/day | TD50 (rat, strain Wistar, males, in feed, site: any site (literature study), lesion: benign tumor, dosed 104 weeks, study length 104 weeks) 1150 mg/kg/day | TD50 (rat, strain Wistar, males, in feed, site: any site (literature study), lesion: malignant tumor, dosed 104 weeks, study length 104 weeks) 4110 mg/kg/day | carcinogen call (rat, strain Wistar, males, in feed, site: liver, lesion: one or several types, types not named, dosed 104 weeks, study length 104 weeks) negative | TD50 (rat, strain Wistar, males, in feed, site: testis, lesion: interstitial-cell tumor, dosed 104 weeks, study length 104 weeks) 1150 mg/kg/day

COc1cc(NC(=O)C(N=Nc2ccc(-c3ccc(N=NC(C(C)=O)C(=O)Nc4cc(OC)c(Cl)cc4OC)c(Cl)c3)cc2Cl)C(C)=O)c(OC)cc1Cl (stereo not given)
inactive: carcinogen call (mouse, strain NMRI, both sexes, in feed, site: any site (literature study), lesion: one or several types, types not named, dosed 104 weeks, study length 104 weeks) negative | TD50 (rat, strain Sprague-Dawley, both sexes, in feed, site: any site (literature study), lesion: one or several types, types not named, dosed 104 weeks, study length 104 weeks) 3560 mg/kg/day

O=NN1CCCN(N=O)CC1
active: TD50 (rat, strain Fischer 344, females, in drinking water, site: esophagus, lesion: several types, types named in the paper, dosed 30 weeks, study length 133 weeks) 0.253 mg/kg/day | TD50 (rat, strain Fischer 344, females, in drinking water, site: esophagus, lesion: several types, types named in the paper, dosed 60 weeks, study length 82 weeks) 0.0553 mg/kg/day | TD50 (rat, strain Fischer 344, females, in drinking water, site: esophagus, lesion: several types, types named in the paper, dosed 120 weeks, study length 133 weeks) 0.105 mg/kg/day | carcinogen call (rat, strain Fischer 344, females, in drinking water, site: liver, lesion: several types, types named in the paper, dosed 30 weeks, study length 133 weeks) positive | TD50 (rat, strain Fischer 344, females, in drinking water, site: liver, lesion: several types, types named in the paper, dosed 120 weeks, study length 133 weeks) 0.0973 mg/kg/day | carcinogen call (rat, strain Fischer 344, females, in drinking water, site: nasal cavity, lesion: olfactory carcinoma, dosed 30 weeks, study length 133 weeks) positive | TD50 (rat, strain Fischer 344, females, in drinking water, site: nasal cavity, lesion: olfactory carcinoma, dosed 60 weeks, study length 82 weeks) 0.207 mg/kg/day | TD50 (rat, strain Fischer 344, females, in drinking water, site: tongue, lesion: basal-cell papilloma, dosed 120 weeks, study length 133 weeks) 0.63 mg/kg/day | TD50 (rat, strain Fischer 344, females, in drinking water, site: upper gastrointestinal tract, lesion: carcinoma, dosed 30 weeks, study length 133 weeks) 0.24 mg/kg/day | TD50 (rat, strain Fischer 344, females, in drinking water, site: upper gastrointestinal tract, lesion: carcinoma, dosed 60 weeks, study length 82 weeks) 0.0469 mg/kg/day | TD50 (rat, strain Fischer 344, females, in drinking water, site: upper gastrointestinal tract, lesion: several types, types named in the paper, dosed 30 weeks, study length 133 weeks) 0.708 mg/kg/day | TD50 (rat, strain Fischer 344, females, in drinking water, site: upper gastrointestinal tract, lesion: several types, types named in the paper, dosed 60 weeks, study length 82 weeks) 0.0297 mg/kg/day | TD50 (rat, strain Fischer 344, females, in drinking water, site: upper gastrointestinal tract, lesion: several types, types named in the paper, dosed 120 weeks, study length 133 weeks) 0.0914 mg/kg/day

OCCN(CCO)c1nc(-c2cccs2)nc2ccccc12
60.1 mg/kg/day: TD50 (rat, strain Sprague-Dawley, females, in feed, site: any site (literature study), lesion: several types, types named in the paper, dosed 46 weeks, study length 66 weeks)

CC=O
active: TD50 (hamster, strain Syrian Golden, females, inhaled, site: larynx, lesion: adenosquamous carcinoma, dosed 52 weeks, study length 81 weeks) 1140 mg/kg/day | TD50 (hamster, strain Syrian Golden, females, inhaled, site: larynx, lesion: several types, types named in the paper, dosed 52 weeks, study length 81 weeks) 728 mg/kg/day | TD50 (hamster, strain Syrian Golden, females, inhaled, site: larynx, lesion: squamous-cell carcinoma, dosed 52 weeks, study length 81 weeks) 2360 mg/kg/day | TD50 (hamster, strain Syrian Golden, males, inhaled, site: larynx, lesion: carcinoma, in situ, dosed 52 weeks, study length 81 weeks) 641 mg/kg/day | TD50 (hamster, strain Syrian Golden, males, inhaled, site: larynx, lesion: several types, types named in the paper, dosed 52 weeks, study length 81 weeks) 461 mg/kg/day | TD50 (hamster, strain Syrian Golden, males, inhaled, site: larynx, lesion: squamous-cell carcinoma, dosed 52 weeks, study length 81 weeks) 2070 mg/kg/day | TD50 (hamster, strain Syrian Golden, males, inhaled, site: nose, lesion: anaplastic carcinoma, dosed 52 weeks, study length 81 weeks) 2070 mg/kg/day | TD50 (hamster, strain Syrian Golden, males, inhaled, site: respiratory system, lesion: several types, types named in the paper, dosed 52 weeks, study length 81 weeks) 461 mg/kg/day | TD50 (rat, strain Wistar-random, females, inhaled, site: nasal mucosa, lesion: adenocarcinoma, dosed 50 weeks, study length 105 weeks) 201 mg/kg/day | TD50 (rat, strain Wistar-random, females, inhaled, site: nasal mucosa, lesion: several types, types named in the paper, dosed 50 weeks, study length 105 weeks) 148 mg/kg/day | TD50 (rat, strain Wistar-random, females, inhaled, site: nasal mucosa, lesion: squamous-cell carcinoma, dosed 50 weeks, study length 105 weeks) 574 mg/kg/day | TD50 (rat, strain Wistar-random, males, inhaled, site: nasal mucosa, lesion: adenocarcinoma, dosed 50 weeks, study length 105 weeks) 190 mg/kg/day | TD50 (rat, strain Wistar-random, males, inhaled, site: nasal mucosa, lesion: several types, types named in the paper, dosed 50 weeks, study length 105 weeks) 88.5 mg/kg/day | TD50 (rat, strain Wistar-random, males, inhaled, site: nasal mucosa, lesion: squamous-cell carcinoma, dosed 50 weeks, study length 105 weeks) 200 mg/kg/day | TD50 (rat, strain Wistar, females, inhaled, site: nose, lesion: adenocarcinoma, dosed 111 weeks, study length 121 weeks) 370 mg/kg/day | TD50 (rat, strain Wistar, females, inhaled, site: nose, lesion: carcinoma, in situ, dosed 111 weeks, study length 121 weeks) 3000 mg/kg/day | TD50 (rat, strain Wistar, females, inhaled, site: nose, lesion: squamous-cell carcinoma, dosed 111 weeks, study length 121 weeks) 1030 mg/kg/day | TD50 (rat, strain Wistar, males, inhaled, site: nose, lesion: adenocarcinoma, dosed 111 weeks, study length 121 weeks) 185 mg/kg/day | TD50 (rat, strain Wistar, males, inhaled, site: nose, lesion: squamous-cell carcinoma, dosed 111 weeks, study length 121 weeks) 627 mg/kg/day
